Non-standard residues stand in square brackets, D forms with d. Residues, ends and D or L forms follow the SMILES beside them. Ahx = NCCCCCC(=O)O

A short description of the data set: Peptide stability in human serum. It counts as in vitro ADME. The settings on record: human serum (Gibco), 37 °C, intact peptide by MALDI-TOF MS, triplicate, mean; for remaining at 6 h: 6 h incubation, read-out: percentage of peptide recovered in human serum, 6 h; for remaining at 24 h: 24 h incubation, read-out: percentage of peptide recovered in human serum, 24 h. How it is done: The peptide TT1-IP was incubated at 37 °C in […] of human serum (Gibco, Illikirch, France) for different periods of time. Samples were collected and peptide degradation stopped by freezing at −20 °C. The peptide was extracted from samples using the Proteo Miner Protein Enrichment System (Bio-Rad, Marnes-la-Coquette, France). The percentage of intact peptide was estimated by mass spectrometry (MS) using MALDI-TOFF with the protocol previously described (Bruker Autoflex II, Palaiseau, France) according to the manufacturer’s instructions. Measurements were performed in triplicate. MS data were analysed using the software Cliprot tools, Flex analysis, Bruker.
iRGD-IP and Lin TT1-IP were incubated in human serum at 37 °C for different periods of time. The integrity of the peptide was analyzed by mass spectrometry (MS). Every measurement was performed in triplicate. Each value is represented as the mean ± standard deviation (SD). Similar results were obtained in two independent experiments.

On to `CC[C@H](C)[C@H](NC(=O)[C@H](CCCNC(=N)N)NC(=O)[C@H](CCC(=O)O)NC(=O)[C@H](CCCNC(=N)N)NC(=O)[C@H](Cc1ccc(O)cc1)NC(=O)[C@H](CCCNC(=N)N)NC(=O)[C@@H](NC(=O)[C@H](CCCCN)NC(=O)[C@H](CC(C)C)NC(=O)[C@H](C)NC(=O)[C@@H](NC(=O)[C@H](CC(C)C)NC(=O)[C@H](CC(C)C)NC(=O)[C@@H](NC(=O)[C@@H](NC(=O)[C@@H](NC(=O)[C@@H](N)CCC(=O)O)[C@@H](C)O)C(C)C)[C@@H](C)O)C(C)C)C(C)C)C(=O)N[C@H](C(=O)NCCCCCC(=O)N[C@@H](C)C(=O)N[C@@H](CCCCN)C(=O)N[C@@H](CCCNC(=N)N)C(=O)NCC(=O)N[C@@H](C)C(=O)N[C@@H](CCCNC(=N)N)C(=O)N[C@@H](CO)C(=O)N[C@H](C(=O)N[C@@H](C)C(N)=O)[C@@H](C)O)[C@@H](C)O` [Lin TT1-IP] (H-ETVTLLVALKVRYRERIT[Ahx]AKRGARSTA-NH2), for which the remaining at 6 h turned out to be 44% and the remaining at 24 h was approximately 30%. The remaining at 3 h (3 h incubation, read-out: percentage of peptide recovered in human serum, 3 h) is approximately 80%.
Take `CC[C@H](C)[C@H](NC(=O)[C@H](CCCNC(=N)N)NC(=O)[C@H](CCC(=O)O)NC(=O)[C@H](CCCNC(=N)N)NC(=O)[C@H](Cc1ccc(O)cc1)NC(=O)[C@H](CCCNC(=N)N)NC(=O)[C@@H](NC(=O)[C@H](CCCCN)NC(=O)[C@H](CC(C)C)NC(=O)[C@H](C)NC(=O)[C@@H](NC(=O)[C@H](CC(C)C)NC(=O)[C@H](CC(C)C)NC(=O)[C@@H](NC(=O)[C@@H](NC(=O)[C@@H](NC(=O)[C@@H](N)CCC(=O)O)[C@@H](C)O)C(C)C)[C@@H](C)O)C(C)C)C(C)C)C(=O)N[C@H](C(=O)NCCCCCC(=O)N[C@H]1CSSC[C@@H](C(N)=O)NC(=O)[C@H](CC(=O)O)NC(=O)[C@@H]2CCCN2C(=O)CNC(=O)[C@H](CCCCN)NC(=O)[C@H](CC(=O)O)NC(=O)CNC(=O)[C@H](CCCNC(=N)N)NC1=O)[C@@H](C)O` [iRGD-IP]: the remaining at 6 h amounted to 77% and the remaining at 24 h turned out to be 62%. The remaining at 1 h (1 h incubation, read-out: percentage of peptide recovered in human serum, 1 h) was 91%.

The record behind these values is PMC10142558, “In Silico and In Vivo Studies of a Tumor-Penetrating and Interfering Peptide with Antitumoral Effect on Xenograft Models of Breast Cancer” (Pharmaceutics, 2023).
